Laboratory results taken from patent publication US4751221A, “2-fluoro-arabinofuranosyl purine nucleosides” (Sloan-Kettering Institute for Cancer Research, priority 1985, dated 1988).

Assays:
P-813 cells = assay: Cytotoxicity against P-813 (text: P-815) mouse leukemia cells; format: cell-based; settings: for IC50: P815, mouse leukemia cells P-813, read-out: ID50 P-813; for activity against mouse leukemic cells P-815: in words
L-1210 cells = assay: Cytotoxicity against L-1210 mouse leukemia cells; format: cell-based; settings: for activity against mouse leukemic cells L-1210: in words
CCRF-CEM cells = assay: Cytotoxicity against CCRF-CEM human tumor cells; format: cell-based; settings: for IC50: human cells CCRF-CEM, read-out: ID50 CCRFCEM; for inhibitory activity against human tumor cell line CCRF-CEM: in words
NL (Namalva) cells = assay: Cytotoxicity against NL (Namalva) human tumor cells; format: cell-based; settings: for IC50: NAMALVA, human cells NL, read-out: ID50 NL; for inhibitory activity against human tumor cell line Namalva: in words
[1] = tested on: Leishmania tropica promastigotes; assay: Growth inhibition of Leishmania tropica promastigotes; format: cell-based; settings: 50% growth inhibition, read-out: inhibits the growth of Leishmania tropica promastigotes by 50% at the concentration
[2] = tested on: L-1210 mouse leukemic cells; settings: in tissue culture; Wilson et al., J. Med. Chem., 13, 369 (1970); cited from earlier work

For `Nc1nc(S)c2ncn([C@@H]3O[C@H](CO)[C@@H](O)[C@@H]3F)c2n1` [9-(2'-deoxy-2'-fluoro-β-D-arabinofuranosyl)-2-amino-6-thiopurine], the IC50 (P-813 cells) was 4.6 µM, the “activity against mouse leukemic cells P-815” value (P-813 cells) was “modest” and the “activity against mouse leukemic cells L-1210” value (L-1210 cells) was “modest”. The IC50 (CCRF-CEM cells) was 0.1 µM, the “inhibitory activity against human tumor cell line CCRF-CEM” value (CCRF-CEM cells) was “potent inhibitory activity” and the IC50 (NL (Namalva) cells) was 1.2 µM. For the same molecule, the “inhibitory activity against human tumor cell line Namalva” value (NL (Namalva) cells) was “potent inhibitory activity”.
With `Nc1nc2c(ncn2[C@@H]2O[C@H](CO)[C@@H](O)[C@@H]2F)c(=O)[nH]1` [9-(2'-deoxy-2'-fluoro-β-D-arabinofuranosyl)-guanine] the IC50 (P-813 cells) was 5.4 µM, the “activity against mouse leukemic cells P-815” value (P-813 cells) was “modest” and the “activity against mouse leukemic cells L-1210” value (L-1210 cells) was “modest”. For the same molecule, the IC50 (CCRF-CEM cells) was under 0.1 µM, the “inhibitory activity against human tumor cell line CCRF-CEM” value (CCRF-CEM cells) was “potent inhibitory activity” and the IC50 (NL (Namalva) cells) was 0.7 µM. For the same molecule, the “inhibitory activity against human tumor cell line Namalva” value (NL (Namalva) cells) was “potent inhibitory activity”.
`O=c1[nH]cnc2c1ncn2[C@@H]1O[C@H](CO)[C@@H](O)[C@@H]1F` [9-(2'-deoxy-2'-fluoro-β-D-arabinofuranosyl)hypoxanthin] showed an IC50 (P-813 cells) of over 30 µM, an IC50 [1] of 0.6 µM and an IC50 (L-1210 cells; L1210, mouse leukemia cells L-1210, read-out: ID50 L-1210) of over 30 µM. The “cytotoxicity against L-1210 cells” value (L-1210 cells; at the concentration of 100 μM) was “does not exhibit any cytotoxicity”, the IC50 (CCRF-CEM cells) was 15.1 µM and the IC50 (NL (Namalva) cells) was about 30 µM.
In the case of `Nc1ccn([C@@H]2O[C@H](CO)[C@@H](O)[C@@H]2F)c(=O)n1` [FAC, 1-(2'-deoxy-2'-fluoro-β-D-arabinofuranosyl)cytosine], the “growth-inhibitory effect against L-1210 mouse leukemic cells” value [2] is given as “comparable with that of 1-(β-D-arabinofuranosyl)cytosine (ara-C) and 1-(β-D-arabinofuranosyl)-5-fluorocytosine (ara-FC)”.
For `Nc1ncnc2c1ncn2[C@@H]1O[C@H](CO)[C@@H](O)[C@@H]1F` [X = NH2, Y = H, 9-(2'-deoxy-2'-fluoro-β-D-arabinofuranosyl)adenine], the IC50 (P-813 cells) was over 30 µM, the IC50 (CCRF-CEM cells) was 0.67 µM and the IC50 (NL (Namalva) cells) was 3 µM.
With `OC[C@H]1O[C@@H](n2cnc3c(S)ncnc32)[C@@H](F)[C@@H]1O` [X = SH, Y = H, 9-(2'-deoxy-2'-fluoro-β-D-arabinofuranosyl)-6-thiopurine] the IC50 (P-813 cells) was 10 µM, the IC50 (CCRF-CEM cells) was 10 µM and the IC50 (NL (Namalva) cells) was 2 µM.
